One assay deals with 2-cell embryos. Kind of assay: Intracellular calcium response of embryos to exogenous PAF. The conditions noted are these: IVF embryos in comparison to fresh and ISF embryos. It counts as cell-based, mouse. On the procedure: Mammalian embryos express a receptor for PAF, and activation of this receptor elicits a transient increase in the embryo's intracellular calcium concentration (Emerson et al., 2000, Journal of Biological Chemistry 275, 21905-21913; Lu et al., 2003, Biology of Reproduction 69, 106-116).
Mouse embryos were incubated with exogenous PAF and the intracellular Ca^2+ concentration was determined as described by Emerson et al. (2000). Embryos tested were: (i) those fertilized in the reproductive tract and collected fresh from the reproductive tract (fresh); (ii) embryos produced by IVF and cultured in vitro (IVF); and (iii) embryos fertilized in the reproductive tract and cultured in vitro (ISF). […] This reduced signaling correlated with poor development of the embryos in vitro.
(In general: Calcium flux is commonly read through the fluorescence of an indicator in the cells.)

Assay [1] deals with mouse embryos. Kind of assay: Co-treatment of embryos in vitro with PAF and PFT-α. The conditions noted are these: zygotes cultured 96 h; 10 nM PAF, 10 μM PFT-α or both. It counts as cell-based.
The next assay deals with p53 mRNA. The assay can be described thus: RT-PCR of p53 mRNA in embryos incubated in α-amanitin. It counts as cell-based, mouse. An excerpt:
RT-PCR was used to compare the expression of p53 mRNA in fresh p53+/+ mouse embryos (embryos fertilised and grown in the reproductive tract) and IVF mouse embryos. For IVF embryos, the model uses a graded range of stress induced by IVF and culture under conditions of increasing growth factor deprivation. Primers were designed (5′-GGAGTCTTCCAGTGTGATGAT, 3′-GGG ACA GCC MG TCT GTT ATG) that successfully produced an RT-PCR product of the correct size (429 bp) and sequence (SUPAMAC) for the p53 gene. Groups of 5 embryos, oocytes or sperm were pooled. mRNA was extracted and RT-PCR performed.
p53 product was detected in oocytes, zygotes, 8-cell, morulae and blastocyst stage mouse embryos collected from the reproductive tract but not in epididymal sperm. In 2-cell embryos detection was variable. […] Quantitative RT-PCR of p53 was performed to compare expression of p53 mRNA in fresh and IVF embryos. Equivalent levels of RNA were found in the oocyte, zygote, morulae and blastocyst of fresh embryos; the levels were 50-70% lower in late 2-cell embryos than in other development stages (data not shown).

The subject of assay [2] is mouse embryos. Kind of assay: Culture of mouse zygotes (IVF or ISF) with PFT-α as media supplement. It counts as cell-based. As for the experimental part:
(§1) Mouse IVF: Females superovulated by 5 IU pregnant mare serum gonadotrophin followed 48 h later by 5 IU human chorionic gonadotrophin. Oocytes were collected 13-15 h after hCG and washed. Epididymal sperm collected from the epididymides of male mice (14-35 weeks old) of proven fertility is immediately placed into 1 ml of medium. Sperm were allowed to disperse for 10 min at 37° C. and were then added to the oocytes at 0.1×10^6/ml. Fertilisation was performed in a final volume of 1 ml of medium. Oocytes and sperm were cultured together for 5 h at 37° C. in 5% CO2 in air. The oocytes were then retrieved, washed in Hepes-buffered HTF and their fertilisation status assessed by microscopic detection of pronuclei and polar bodies. Fertilised oocytes were transferred to drops of modified HTF medium under mineral oil and their development status assessed each 24 h.
A recently developed selective inhibitor of p53, pifithrin-α (PFTα [2-(2-imino-4,5,6,7-tetrahydrobenzothiazol-3-yl)-1-p-tolylethanone], Sigma-Aldrich), is a small molecule that reversibly blocks p53-dependent transcriptional activation and apoptosis (Komarov et al., 1999, Science 285, 1733-1737). PFT-α was prepared initially by solubilising to a concentration of 10 mM in dimethylsolfoxide and diluted to working concentrations.
Zygotes were produced by either fertilization in vitro (IVF) or fertilisation in situ (ISF) and cultured for 96 hours in modified HTFM medium individually in […] drops. PFT-α was added as a media supplement over the dose range […]. The proportion of embryos developing to the blastocyst stage (FIG. 3A), the number of cells per normal blastocyst and the proportion of cells undergoing apoptosis (FIG. 3B), were assessed.

Another assay has as its system sperm and oocytes. The assay can be described thus: Treatment of mouse gametes with PFT-α during capacitation and fertilisation in vitro. It counts as cell-based. On the procedure: as §1
PFT-α preparation, IVF and embryo culture was as previously described. The study used F1 (C57Bl6j×CBAj) males and females. PFT-α was added to sperm during its capacitation and during the process of fertilisation in vitro.
4-5 h after the addition of sperm to oocytes, the oocytes were washed free of sperm and PFT-α. They were examined for the presence of 2 pronuclei as evidence of successful fertilisation. Successfully fertilised oocytes were placed in culture in 10 μL of modified HTF media, 1 zygote per 10 μL drop. They were culture for 120 h and the proportion forming morphologically normal blastocysts were recorded. The blastocysts were fixed in 2% formaldehyde and stained with 5 μG Hoechst stain/ml. […]
The effect of dose of PFT-A on the proportion of oocytes fertilised, the proportion of zygotes that developed to morphological blastocyst and the number of cells in each blastocysts were recorded and are shown in FIGS. 4A, B and C respectively. The effect of PFT-A dose was assessed using the SPSS statistical package. The fertilisation rate and development rate were assessed using binary logistic regression analysis while cell numbers were assessed by univariate analysis using the general linear model.

Another assay deals with bovine sperm. The assay can be described thus: Treatment of bovine sperm with PFT-α before insemination, blastocyst formation. In kind it is cell-based. As to conditions: bovine sperm incubated 1 h with 0.3-3 μM PFT-α before insemination; Day 7; compared to control. On the procedure: All embryo manipulations were performed at 39° C. except for oocyte harvesting and activation which was performed at room temperature. All procedures were performed in 4-well Nunc dishes in Tissue Culture Medium 199 (TCM-199) supplemented with HEPES (TCM-H TCM-199; Gibco™ BRL/Life Technologies, Melbourne, Victoria, Australia) without mineral oil overlay, unless otherwise indicated.
Bovine ovaries collected from 2 different local slaughterhouse, transported at 30-35° C. to the laboratory and washed on 39° C. physiologic saline (0.9% NaCl; Baxter Healthcare Pty., Ltd., NSW, Australia). Ovarian antral follicles (2-8 mm) were aspirated using an 18-gauge needle and collected into TCM-H with 30 IU ml^−1 heparin (Pharmacia & Upjohn Pty., Ltd., Perth, Wash., Australia) and 2% gamma radiated fetal bovine serum (FBS; JRH Biosciences Pty., Ltd., Melbourne, Victoria, Australia). Cumulus oocyte complexes (COCs) showing an even cytoplasm and surrounded by at least three layers of compact cumulus cells were collected from the follicular fluid. […]
Frozen/thawed semen from an elite bull was placed on a Percoll gradient and centrifuged at 600×g for 20 minutes. The top layers were removed and the sperm concentration and motility of the pellet determined. […]
The proportion of blastocysts were determined on Day 7 (Day 0=fertilization). […]

Assay [3] has as its system mouse embryos. The assay can be described thus: Combined treatment of IGF-II and PFT-α on embryo development in vitro. In kind it is cell-based. The conditions noted are these: IVF zygotes cultured 96 h, 10 ng/ml IGF-II, 1 μM PFT-α, or both; for Cells/blastocyst: control 23 ± 4; for % blastocyst: control 31. On the procedure: The IGF-II used was human recombinant insulin-like growth factor-II (expressed in E. Coli) (Sigma Chemical Co.), reconstituted with a minimal volume of 0.1M acetic acid and immediately diluted with modified-HTF to a concentration of 50 μg/ml. Aliquots were frozen at −70° C. Upon thawing, aliquots were serially diluted with modified-HTF.
Zygotes produced by IVF from F1 crosses were prepared and cultured as described above, with 1 embryo per […] drop of media. Zygotes were cultured for 96 h in modified HTFM medium individually in 10 μl drops. The proportion of embryos developing to morphologically normal blastocysts, the number of cells in each blastocyst and the number of apoptotic cells per blastocyst were assessed in media containing 10 ng/ml IGF-II, 1 μM PFT-α, or IGF-II+PFT-α.

[4] abbreviates: gametes treated with PFT-α, zygotes cultured 120 h, P<0.05.

Regarding “1 hexadecyl/octadecyl-2-acetyl-sn-glyceryl-3-phosphocholine [PAF]”, the “proportion of 2-cell IVF embryos that responded to exogenous PAF (intracellular calcium)” value in the assay on 2-cell embryos is reported as “substantially reduced”. For the same molecule, in the assay with mouse embryos [1], the “embryo viability as proportion of embryos that developed to the blastocyst stage” value is given as “increase in embryo viability”.
As for `CC[C@H](C)[C@@H]1NC(=O)CNC(=O)[C@@H]2Cc3c([nH]c4cc(O)ccc34)[S+]([O-])C[C@@H](NC(=O)CNC1=O)C(=O)N[C@@H](CC(N)=O)C(=O)N1C[C@H](O)C[C@H]1C(=O)N[C@@H]([C@@H](C)[C@@H](O)CO)C(=O)N2` (stereo in doubt) [α-amanitin], in the assay with p53 mRNA (2-cell embryos incubated in α-amanitin, after 24 h), the “p53 mRNA in embryos after incubation from the 2-cell stage” value is on record as “p53 mRNA negative”. Besides, in the assay with p53 mRNA (zygotes incubated in α-amanitin), the “qualitative expression of p53 RNA in zygotes” value is reported as “no effect”.
In the case of `Cc1ccc(C(=O)Cn2c3c(sc2=N)CCCC3)cc1` [PFT-α, 2-(2-imino-4,5,6,7-tetrahydrobenzothiazol-3-yl)-1-p-tolylethanone], the “proportion of IVF embryos that developed to the blastocyst stage” value with mouse embryos [2] (IVF zygotes cultured 96 h individually, PFT-α dose range 0.1-20 μM) is listed as “significant quadratic effect”. The embryo survival entry with mouse embryos [2] (between 0.1 and 20 μM added to embryos in culture) is “significant effect on increasing embryo survival”. For the same molecule, the “number of cells per normal blastocyst” value in the assay on mouse embryos [2] (both ISF and IVF zygotes, cultured 96 h, PFT-α dose range 0.1-20 μM) is “significant improvement”. In addition, the “number of cells undergoing apoptosis” value with mouse embryos [2] (both ISF and IVF zygotes, cultured 96 h, PFT-α dose range 0.1-20 M (so in the source)) is reported as “significant decrease”. The “fertilisation rate (proportion of oocytes fertilised)” value in the assay with sperm and oocytes (PFT-α present during sperm capacitation and IVF, P<0.01) is listed as “dose-dependent increase”. For the same molecule, in the assay on sperm and oocytes (setting [4]), the “mean number of cells present in each embryo (blastocyst)” value is listed as “dose-dependent significant increase” and the “proportion of zygotes that developed to the blastocyst stage” value was “further dose-dependent increase”. Further, the “proportion of resulting embryos that developed to morphological blastocysts” value with bovine sperm is listed as “significant positive effect”. The “embryo viability as proportion of embryos that developed to the blastocyst stage” value with mouse embryos [1] is on record as “increase in embryo viability”. In the assay with mouse embryos [3], the Cells/blastocyst was 32 ± 4 and the “% blastocyst” value was determined as 44%.
Turning to “IGF-II: human recombinant insulin-like growth factor-II (expressed in E. Coli), Sigma Chemical Co.”, in the assay with mouse embryos [3], the Cells/blastocyst was 29 ± 2 and the “% blastocyst” value is reported as 42%.

Source of the values: patent US7695426B2, “Methods for enhancing viability” (Biological Resources Pty Ltd, priority 2003, dated 2010).
